Laboratory results from patent US20230321064A1, “Products for Treating the JNCL Disease” (Beyond Batten Disease Foundation, priority 2020, published 2023).
Entries after “also recorded” stand apart in the source; their conditions may differ. Like-named read-outs stand apart in the source and are kept apart here.

Legend:
[1] = system: purified trehalase; experiment: In vitro colorimetric trehalase assay (glucose generation, 340 nm); assay type: biochemical; conditions: in the presence of miglustat; 340 nm absorbance
Description: To this aim, an in vitro colorimetric assay was performed to measure the rate of generation of glucose, the product of trehalose hydrolysis by trehalase. In the absence of miglustat, trehalose was rapidly hydrolysed by purified trehalase, and the glucose produced could be quantified at 340 nm absorbance. In the test conditions, the amounts of glucose detected increased over time to reach a plateau in […].

[2] = system: Cln3^Δex7-8 mice; experiment: Neuronal cell death, cleaved caspase-3 immunohistology in brain sections; assay type: in vivo, mouse; conditions: for cell death (cleaved CAS-3) in the VPM/VPL region: 12 months of age, oral, 2% Trehalose in drinking water, Miglustat in chow (FIG. 1E)
Description: (§1) Cln3^Δex7-8 mice were obtained from the Jackson Laboratory. Control (C57BL/6J) and Cln3^Δex7-8 mice were housed 3-4 per cage in a room with a 12-h light/12-h dark cycle. Food and water were provided ad libitum. All mice used in this study were analyzed at 8 and 12 months of age and were littermates produced by crossing heterozygous Cln3^Δex7-8 mice. Only males were used for this analysis. Investigators were blinded when analyzing the data, and no randomization was necessary.
(§2) For oral administration, Trehalose was dissolved in drinking water to a final concentration of 2% and changed twice a week. Trehalose-containing water was given to Cln3^Δex7-8 mice and WT mice by spontaneous oral administration starting at 21 days of age and continuing until the day the mice were sacrificed for neuropathology studies.
(§3) Miglustat was administered in mixture with the food pellet starting at 21 days of age and continuing until the day the mice were sacrificed for neuropathology studies. Miglustat food was prepared by TestDiet using the 5V5R rodent diet (LabDiet). Two concentrations were used: 1.2 g/Kg chow (indicated as “low concentration”) and 7.2 g/Kg chow (indicated as “high concentration”) and two separate groups of Cln3^Δex7-8 mice were fed with either diet. One additional group of Cln3^Δex7-8 l mice was fed with a combination of the low-concentration Miglustat food and 2% Trehalose water.
(§4) Twelve-month-old homozygous Cln3^Δex7-8 mice and age-matched controls (WT mice) were anaesthetized with isoflurane and transcardially perfused with PBS followed by 4% buffered paraformaldehyde in 0.1 M sodium phosphate buffer, pH 7.4. Brains were subsequently removed and postfixed overnight. Before sectioning, the brains were cryoprotected in a solution containing 30% sucrose in Tris-buffered saline (TBS: 50 mM Tris, pH 7.6). Consecutive 40 μm floating coronal sections were collected in 96-well plates. Series of sections were then stained with primary antisera against CD68 (AbD
(§5) Serotec, Cat. No. MCA1957), GFAP (DAKO, Cat. No. Z0334), Subunit C of mitochondrial ATP synthase (SCMAS; Abcam, Cat. No. ab181243), or cleaved caspase 3 (Asp175) (Cell Signaling, Cat. No. 9661S) followed by either rabbit anti-rat (VectorLab) or swine anti-rabbit (DAKO) secondary antibodies, and immunoreactivity detected with Vectastain ABC (avidin-biotin) kit (Vector) and diaminobenzidine as a chromogen.
(§6) Non-overlapping images were captured, on three consecutive sections, through each region of interest. All RGB images were captured via a live video camera (JVC, 3CCD, KY-F55B), mounted onto a Zeiss Axioplan microscope using a x 40 objective and saved as JPEGs. All parameters including lamp intensity, video camera set-up and calibration were maintained constant throughout image capturing. For quantification of storage and inflammation, images were analyzed using ImageJ analysis software (NIH), using an appropriate threshold that selected the foreground immunoreactivity above background. This threshold was then applied as a constant to all subsequent images analyzed per batch of animals and reagent used to determine the specific area of immunoreactivity for each antigen in each region. Data were plotted graphically as the mean percentage area of immunoreactivity per field ±s.e.m. for each region. For quantification of cell death, images were analyzed manually and scored for the presence of apoptotic nuclei. Data were plotted graphically as the mean number of apoptotic cells per field ±s.e.m. for each region. […]

[3] = system: Cln3^Δex7-8 mice; experiment: Microglial activation, CD68 immunohistochemistry in brain sections; assay type: in vivo, mouse
Description: as §1, §2, §3, §4, §5
as §6, with “Data were plotted graphically as the mean percentage area of immunoreactivity per field ±s.e.m. for each region.” left out, “nuclei.” for “nuclei. Data were plotted graphically as the mean number of apoptotic cells per field ±s.e.m. for each region.”
(S1BF), the primary visual (V1) cortex, and the dorsolateral geniculate (DLG) (Pontikis et al., 2005). To quantify microglial activation, antibodies against the microglial marker CD68 were used. […]

[4] = system: Cln3^Δex7-8 mice; experiment: Astrocytosis, GFAP immunohistochemistry in brain sections; assay type: in vivo, mouse
Description: as §1, §2, §3, §4, §5
Non-overlapping images were captured, on three consecutive sections, through each region of interest. All RGB images were captured via a live video camera (JVC, 3CCD, KY-F55B), mounted onto a Zeiss Axioplan microscope using a x 40 objective and saved as JPEGs. All parameters including lamp intensity, video camera set-up and calibration were maintained constant throughout image capturing. For quantification of storage and inflammation, images were analyzed using ImageJ analysis software (NIH), using an appropriate threshold that selected the foreground immunoreactivity above background. This threshold was then applied as a constant to all subsequent images analyzed per batch of animals and reagent used to determine the specific area of immunoreactivity for each antigen in each region. Data were plotted graphically as the mean percentage area of immunoreactivity per field ±s.e.m. for each region. For quantification of cell death, images were analyzed manually and scored for the presence of apoptotic nuclei. Data were plotted graphically as the mean number of apoptotic cells per field ±s.e.m. for each region. All analyses were performed blind to genotype and treatment.
[…] was also quantified by performing immunohistochemistry staining of brain sections of all test and control mice using anti-GFAP antibodies.

[5] = system: Cln3^Δex7-8 mice; experiment: Lysosomal storage in cerebellum (SCMAS staining); assay type: in vivo, mouse; conditions: 12 months of age
Description: as §1
For oral administration, Trehalose was dissolved in drinking water to a final concentration of 2% and changed twice a week. […]
as §5
Non-overlapping images were captured, on three consecutive sections, through each region of interest. […] For quantification of storage and inflammation, images were analyzed using ImageJ analysis software (NIH), using an appropriate threshold that selected the foreground immunoreactivity above background. […]

[6] = system: CLN3 1kb mutant human fibroblasts; experiment: Glycosphingolipid and lysosomal storage in CLN3 1 kb deletion mutant fibroblasts; assay type: cell-based
[7] = system: human CLN3 disease NPC derived cortical neurons; experiment: Glycosphingolipid and lysosomal storage in CLN3 patient iPSC/NPC derived cortical neurons; assay type: cell-based
[8] = system: cln3 morphant zebrafish embryos; experiment: Glycosphingolipid/SCMAS storage and eye phenotype in cln3 morphant zebrafish embryos; assay type: in vivo; conditions: miglustat 300 μM from 4 hpf for 88 h
[9] = cited from earlier work
[10] = Miglustat 50 μM during the final week of differentiation

In the case of `CCCCN1C[C@H](O)[C@@H](O)[C@H](O)[C@H]1CO` [Miglustat, (2R,3R,4R,5S)-1-butyl-2-(hydroxymethyl)piperidine-3,4,5-triol], the “trehalase-mediated hydrolysis of trehalose to glucose (glucose generated)” value [1] is reported as “only a minimal amount of glucose was generated”, the “cell death (cleaved CAS-3) in the VPM/VPL region” value [2] is reported as “largely suppressed” and the “cell death (cleaved CAS-3) in the VPM/VPL region” value ([2]; listed as miglustat) is reported as “prevented”. For the same compound, the “programmed cell death (cleaved caspase-3 reactive cells)” value ([2]; regions analyzed: VPM/VPL, dLG, S1BF, V1 (FIGS. 1A-D), oral treatment) was “effective in abating programmed cell death”, the “microglial activation (CD68) in the VPM/VPL” value ([3]; FIG. 2A) was “potently prevented microglial activation; also recorded: undistinguishable from WT mice” and the “microglial activation (CD68) in the DLG” value ([3]; FIG. 2B) was “significantly decreased microglial activation”. The “CD68 staining in the VPM/VPL” value ([3]; low concentrations of Miglustat (1.2 g/Kg chow), FIG. 2E) was “largely reduce CD68 staining”, the “CD68 staining in the cerebellum” value ([3]; low concentrations of Miglustat, not shown) was “partially or largely reduce CD68 staining” and the “astroglial activation (GFAP staining) in the VPM/VPL region” value ([4]; 12 months of age, oral, Miglustat even at low doses (FIG. 3E)) was “largely suppressed”. For the same compound, the “astrocytosis (GFAP immunoreactivity) in the VPM/VPL” value ([4]; FIG. 3A) was “undistinguishable from that of WT mice”, the “astrocytosis (GFAP immunoreactivity) in the DLG” value ([4]; FIG. 3B) was “prevented astrocytosis” and the “astrocytosis (GFAP) in the S1BF” value ([4]; FIG. 3C) was “reduction in astrocytosis, although this did not reach statistical significance”. For the same compound, the “increased storage in the cerebellum (SCMAS staining)” value [5] was “no consistent effects”, the “accumulation of SCMAS” value ([6]; 50 μM miglustat) was “significantly reduced” and the “localisation of CtxB (ganglioside GM1)” value ([6]; 50 μM miglustat) was “restores sub-plasma membrane localisation”. For the same compound, the “lysosomal inclusions by EM” value ([6]; 50 μM miglustat) was “notable absence of the dark membranous whorl-like inclusions”, the “peak CtxB fluorescence (confocal line scans)” value ([6]; 50 μM miglustat) was “clearly reduces the peak CtxB fluorescence” and the “swollen mitochondria with abnormal cristae (electron microscopy)” value ([6]; 50 μM miglustat) was “normalised”. The “accumulating GSLs (ganglioside GM1 by CtxB, globosides Gb3/4 by SLxT)” value ([6]; 50 μM miglustat for 5 days) was “normalised; also recorded: significant reduction in the accumulating GSLs back to control levels”, the “elevated lysosomal Ca2+” value ([6]; 50 μM miglustat, ionomycin/GPN, Fura 2,AM) was “restored to healthy control levels” and the “localisation of CtxB (ganglioside GM1)” value ([6]; 50 μM miglustat, listed as miglustat) was “normalisation in localisation of CtxB back to the plasma membrane”. For the same compound, the “autophagy (CytoID)” value ([6]; 50 μM miglustat, live cells) was “normalisation in elevated autophagy”, the “expansion of the lysosomal system (lysotracker staining)” value ([6]; 50 μM miglustat, live cells) was “normalisation in the visible expansion of the lysosomal system” and the “excitotoxic glutamate induced Ca2+ signalling” value [7, 10] was “normalisation of excitotoxic glutamate induced Ca^2+ signalling”. The “expansion of the lysosomal and autophagic vacuole systems (lysotracker and cytoID staining)” value [7, 10] was “reduction in expansion of the lysosomal and autophagic vacuole systems”, the “lipid and protein storage levels (globoside, ganglioside GM1, SCMAS)” value [7, 10] was “normalised; also recorded: reduced lipid and protein storage levels” and the lipid localisation [7, 10] was “normalisation of lipid localisation”. The “lysosomal Ca2+ content” value ([7]; Miglustat 50 μM, ionomycin/GPN, Fura 2,AM) was “normalisation of lysosomal Ca^2+ content”, the “fluorescence intensity of glycolipids and of lipofuscin associated SCMAS storage” value [8] was “normalised; also recorded: decrease, particularly in the brain, in fluorescence intensity” and the “ganglioside GM1 storage within the brain (CtxB line scans)” value [8] was “reduced; also recorded: normalised”. The retinal area [8] was “restored to wild-type levels”, the Solubility in water ([9]; as a free base) was “(>1000 mg/mL as a free base)” and the “Solubility in water” value [9] was “Miglustat: Highly soluble in water”.
